Patent US20100285145A1, “GPR 119 MODULATORS” (PFIZER INC, priority 2009, published 2010)
“And” between values parts separate entries of the source, which are not always exact repeats. Identical values can stand only once.

Target: T1, human GPR119 (Homo sapiens, UniProt Q8TDV5)
T1 sequence (Q8TDV5 1-335): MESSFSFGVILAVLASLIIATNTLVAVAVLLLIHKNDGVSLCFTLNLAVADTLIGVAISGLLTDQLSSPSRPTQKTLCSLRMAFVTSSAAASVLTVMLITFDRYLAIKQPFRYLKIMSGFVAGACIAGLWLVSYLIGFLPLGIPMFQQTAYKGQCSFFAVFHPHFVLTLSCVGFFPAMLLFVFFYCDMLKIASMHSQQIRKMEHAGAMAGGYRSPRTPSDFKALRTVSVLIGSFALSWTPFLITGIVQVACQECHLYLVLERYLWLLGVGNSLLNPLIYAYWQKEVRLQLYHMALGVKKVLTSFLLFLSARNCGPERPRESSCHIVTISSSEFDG
Experiment: GPR119 radioligand binding assay ([3H]-Compound A or B, membranes of HEK 293FT cells expressing hGPR119)
Design: host or cells: HEK293-CRE beta-lactamase
Details: calculated from IC50 with Cheng-Prusoff; each line a separate determination
Procedure: HEK 293FT cells (Invitrogen, Carlsbad, Calif.) were grown in a shake flask in 293Freestyle medium (Invitrogen) supplemented with 50 microg/mL neomycin and 10 mM HEPES (37C, 8% carbon dioxide, shaking). The cells were centrifuged gently (approximately 500×g, 10 minutes) and the pellet resuspended in a mixture of Dulbecco's PBS (minus Mg++/−Ca++) supplemented with 18% fetal bovine serum (Sigma Aldrich) and P1 virus such that the multiplicity of infection (MOI) was 10 and the final cell density was 1.3×10^6/mL (total volume 2.5 liters). The cells were transferred to a 5 liter Wave Bioreactor Wavebag (Wave Technologies, Mass.) and incubated for 4 hours at 27 degrees Celsius (17 rocks/min, 7 degrees platform angle); at the end of the incubation period, an equal volume (2.5 liters) of 293Freestyle medium supplemented with 30 mM sodium butyrate (Sigma Aldrich) was added (final concentration=15 mM), and the cells were grown for 20 hours (37 degrees Celsius, 8% CO2 [0.2 liters/min}, 25 rocks/minute, 7 degrees platform angle). Cells were harvested via centrifugation (3,000×g, 10 minutes), washed once on DPBS (minus Ca++/Mg++), resuspended in 0.25M sucrose, 25 mM HEPES, 0.5 mM EDTA, pH 7.4 and frozen at −80 degrees Celsius.
The frozen cells were thawed on ice and centrifuged at 700×g (1400 rpm) for 10 minutes at 4 degrees Celsius. The cell pellet was resuspended in 20 mL phosphate-buffered saline, and centrifuged at 1400 rpm for 10 minutes. The cell pellet was then resuspended in homogenization buffer (10 mM HEPES (Gibco #15630), pH 7.5, 1 mM EDTA (BioSolutions, #BIO260-15), 1 mM EGTA (Sigma, #E-4378), 0.01 mg/mL benzamidine (Sigma #B 6506), 0.01 mg/mL bacitracin (Sigma #B 0125), 0.005 mg/mL leupeptin (Sigma #L 8511), 0.005 mg/mL aprotinin (Sigma #A 1153)) and incubated on ice for 10 minutes. Cells were then lysed with 15 gentle strokes of a tight-fitting glass Dounce homogenizer. The homogenate was centrifuged at 1000×g (2200 rpm) for 10 minutes at 4 degrees Celsius. The supernatant was transferred into fresh centrifuge tubes on ice. The cell pellet was resuspended in homogenization buffer, and centrifuged again at 1000×g (2200 rpm) for 10 minutes at 4 degrees Celsius after which the supernatant was removed and the pellet resuspended in homogenization buffer. This process was repeated a third time, after which the supernatants were combined, Benzonase (Novagen # 71206) and MgCl2 (Fluka #63020) were added to final concentrations of 1 U/mL and 6 mM, respectively, and incubated on ice for one hour. The solution was then centrifuged at 25,000×g (15000 rpm) for 20 minutes at 4 degrees Celsius, the supernatant was discarded, and the pellet was resuspended in fresh homogenization buffer (minus Benzonase and MgCl2). After repeating the 25,000×g centrifugation step, the final membrane pellet was resuspended in homogenization buffer and frozen at −80 degrees Celsius. The protein concentration was determined using the Pierce BCA protein assay kit (Pierce reagents A #23223 and B #23224).
Test compounds were serially diluted in 100% DMSO (J. T. Baker #922401). 2 microL of each dilution was added to appropriate wells of a 96-well plate (each concentration in triplicate). Unlabeled Compound A (or Compound B), at a final concentration of 10 microM, was used to determine non-specific binding. [^3H]-Compound A (or [^3H]-Compound B) was diluted in binding buffer (50 mM Tris-HCl, pH 7.5, (Sigma #T7443), 10 mM MgCl2 (Fluka 63020), 1 mM EDTA (BioSolutions #BIO260-15), 0.15% bovine serum albumin (Sigma #A7511), 0.01 mg/mL benzamidine (Sigma #B 6506), 0.01 mg/mL bacitracin (Sigma #B 0125), 0.005 mg/mL leupeptin (Sigma #L 8511), 0.005 mg/mL aprotinin (Sigma #A 1153)) to a concentration of 60 nM, and 100 microL added to all wells of 96-well plate (Nalge Nunc # 267245). […]

Structure (SMILES)	Ki
CC(C)OC(=O)N1CCC(Oc2cc(N3CCc4cc(C#N)ccc43)ncn2)CC1 [Example 10, Isopropyl 4-{[6-(5-cyano-2,3-dihydro-1H-indol-1-yl)pyrimidin-4-yl]oxy}piperidine-1-carboxylate]	0.232 µM
Cc1c(O[C@H]2[C@@H]3COC[C@H]2CN(C(=O)OC2(C)CC2)C3)ncnc1N1CCc2ncccc21 [Example 25, 1-Methylcyclopropyl (9-anti)-9-{[6-(2,3-dihydro-1H-pyrrolo[3,2-b]pyridin-1-yl)-5-methylpyrimidin-4-yl]oxy}-3-oxa-7-azabicyclo[3.3.1]nonane-7-carboxylate]	0.039 µM and 0.0347 µM
Cc1c(O[C@@H]2[C@@H]3COC[C@H]2CN(C(=O)OC(C)C)C3)ncnc1N1CCc2ncccc21 [Example 29, Isopropyl (9-syn)-9-{[6-(2,3-dihydro-1H-pyrrolo[3,2-b]pyridin-1-yl)-5-methylpyrimidin-4-yl]oxy}-3-oxa-7-azabicyclo[3.3.1]nonane-7-carboxylate]	0.0738 µM
Cc1c(O[C@H]2CCN(C(=O)OC3(C)CC3)C[C@H]2F)ncnc1N1CCc2ncccc21 [Example 17, 1-Methylcyclopropyl (3R,4S)-4-{[6-(2,3-dihydro-1H-pyrrolo[3,2-b]pyridin-1-yl)-5-methylpyrimidin-4-yl]oxy}-3-fluoropiperidine-1-carboxylate]	0.002 µM and 0.00504 µM and 0.00243 µM and 0.00423 µM and 0.0017 µM and 0.00567 µM and 0.0138 µM and 0.0119 µM and 0.00245 µM and 0.0069 µM
CC(C)OC(=O)N1CCC(Oc2cc(N3CCc4cc(C(=O)N(C)C)ccc43)ncn2)CC1 [Example 9, 4-[6-(5-Dimethylcarbamoyl-2,3-dihydroindol-1-yl)-pyrimidin-4-yloxy]-piperidine-1-carboxylic acid isopropyl ester]	0.0588 µM and 0.0452 µM
Cc1c(O[C@H]2CCN(C(=O)OC(C)(C)C)C[C@H]2F)ncnc1N1CCc2ncccc21 (racemic) [Example 16, tert-Butyl (3R,4S)-4-{[6-(2,3-dihydro-1H-pyrrolo[3,2-b]pyridin-1-yl)-5-methylpyrimidin-4-yl]oxy}-3-fluoropiperidine-1-carboxylate (racemic)]	0.00148 µM and 0.00212 µM
Cc1c(OC2CCN(C(=O)OC(C)C)CC2)ncnc1N1CCc2ncccc21 [Example 13, Isopropyl 4-{[6-(2,3-dihydro-1H-pyrrolo[3,2-b]pyridin-1-yl)-5-methylpyrimidin-4-yl]oxy}-piperidine-1-carboxylate]	0.0553 µM and 0.016 µM and 0.0911 µM and 0.0238 µM
CC(C)OC(=O)N1C[C@H]2COC[C@@H](C1)[C@H]2Oc1cc(N2CCc3cc(S(C)(=O)=O)ccc32)ncn1 [Example 1, Isopropyl 9-anti-({6-[5-(methylsulfonyl)-2,3-dihydro-1H-indol-1-yl]pyrimidin-4-yl}oxy)-3-oxa-7-azabicyclo[3.3.1]nonane-7-carboxylate]	0.219 µM and 0.0355 µM
Cc1c(OC2CCN(C(=O)OC(C)C)CC2)ncnc1N1CCc2cc(S(C)(=O)=O)ccc21 [Example 8, Isopropyl 4-({5-methyl-6-[5-(methylsulfonyl)-2,3-dihydro-1H-indol-1-yl]pyrimidin-4-yl}oxy)piperidine-1-carboxylate]	0.273 µM and 0.338 µM
CC(C)OC(=O)N1CCC(Oc2ncnc(N3CCc4cc(S(C)(=O)=O)ccc43)c2C#N)CC1 [Example 6, Isopropyl 4-({5-cyano-6-[5-(methylsulfonyl)-2,3-dihydro-1H-indol-1-yl]pyrimidin-4-yl}oxy)piperidine-1-carboxylate]	0.00187 µM and 0.00502 µM
CC(C)(C)OC(=O)N1CCC(Oc2cc(N3CCc4cc(S(C)(=O)=O)ccc43)ncn2)C(F)C1 (racemic) [Example 15, tert-Butyl 3-fluoro-4-({6-[5-(methylsulfonyl)-2,3-dihydro-1H-indol-1-yl]pyrimidin-4-yl}oxy)piperidine-1-carboxylate]	0.00172 µM and 0.00677 µM and 0.0016 µM
CC(C)OC(=O)N1CCC(Oc2cc(N3CCc4ncccc43)ncn2)CC1 [Example 12, Isopropyl 4-{[6-(2,3-dihydro-1H-pyrrolo[3,2-b]pyridin-1-yl)pyrimidin-4-yl]oxy}piperidine-1-carboxylate]	6.1 µM and 1.35 µM and 2.91 µM
CCC1(OC(=O)N2C[C@H]3COC[C@@H](C2)[C@H]3Oc2ncnc(N3CCc4ncccc43)c2C)CC1 [Example 26, 1-Ethylcyclopropyl (9-anti)-9-{[6-(2,3-dihydro-1H-pyrrolo-[3,2-b]pyridin-1-yl)-5-methylpyrimidin-4-yl]oxy}-3-oxa-7-azabicyclo[3.3.1]nonane-7-carboxylate]	0.0405 µM and 0.0222 µM
Cc1c(O[C@H]2[C@@H]3COC[C@H]2CN(C(=O)OC(C)C)C3)ncnc1N1CCc2ncccc21 [Example 22, Isopropyl (9-anti)-9-{[6-(2,3-dihydro-1H-pyrrolo[3,2-b]pyridin-1-yl)-5-methylpyrimidin-4-yl]oxy}-3-oxa-7-azabicyclo[3.3.1]nonane-7-carboxylate]	0.0666 µM and 0.0793 µM and 0.053 µM and 0.0964 µM
Cc1c(O[C@H]2[C@@H]3COC[C@H]2CN(C(=O)OC2(C)CCC2)C3)ncnc1N1CCc2ncccc21 [Example 27, 1-Methylcyclobutyl (9-anti)-9-{[6-(2,3-dihydro-1H-pyrrolo[3,2-b]pyridin-1-yl)-5-methylpyrimidin-4-yl]oxy}-3-oxa-7-azabicyclo[3.3.1]nonane-7-carboxylate]	0.0208 µM and 0.0138 µM
CC(C)OC(=O)N1CCC(Oc2cc(N3CCc4cc(S(=O)(=O)CCO)ccc43)ncn2)CC1 [Example 11, Isopropyl 4-[(6-{5-[(2-hydroxyethyl)sulfonyl]-2,3-dihydro-1H-indol-1-yl}pyrimidin-4-yl)oxy]piperidine-1-carboxylate]	0.0728 µM
